Where “and” joins values, the source holds several entries; their conditions need not be identical. Equal entries are not always repeated.
System: K12877-001-R-J1-PDC complex spheroid viability
Test: Anticancer human tumor K12877-001-R-J1-PDC patient-derived lung adenocarcinoma cell line growth inhibition [RAS]
Details: for viability, T/C: stronger effect = lower value
Source text: RAS pathway inhibitors in Combinations in Complex Spheroids
A high-throughput screen of multi-cell type tumor spheroids was designed to identify active combinations of RAS pathway inhibitors and targeted small molecules. Complex spheroids include a stromal component modeled by human endothelial cells (HUVEC) and fibroblasts modeled by human mesenchymal stem cells (MSCs). The concentration ranges selected for each drug and investigational agent were based upon clinically achievable concentrations if the clinical Cmax of the agent was known.
Compounds. The drugs and investigational agents: abemaciclib (NSC768073), cobimetinib (NSC768068), divarasib (GDC6063, NSC841802), docetaxel (NSC628503), GDC-1971 (RLY-1971, NSC841576), gemcitabine (NSC613327), inavolisib (NSC800729), ipatasertib (NSC767898), KB-0742 (NSC834161), MRTX-1133 (NSC836407), osimertinib (NSC779217), RMC-4630 (NSC839698), RMC-6236 (NSC851965), RMC-6291 (NSC852671), Ro-3306 (NSC812927), sapanisertib (NSC764658), SN-38 (NSC673596), staurosporine (NSC755774), SY5609 (NSC837396), and tovorafenib (DAY101, NSC766906), were obtained from the National Cancer Institute (NCI) Developmental Therapeutics Program Chemical Repository. The FDA-approved anticancer drug set is available from the NCI Developmental Therapeutics Program. […] The stock solutions were prepared in dimethyl sulfoxide (DMSO, Sigma-Aldrich, St. Louis, MO, cat. D2650) at 800-fold the tested concentration and stored at -70 degrees C prior to their use. All drugs and investigational agents were tested over a range starting from a high concentration at or near the clinical Cmax and decreasing in half-log increments. If the clinical Cmax for an agent had not been determined, the highest concentration tested was 10 microM.
Cell Culture. All cells were maintained in an incubator at 37 degrees C and 5% CO2 with 95% humidity. The PDC lines were cultured according to standard operating procedures established by the NCI PDMR. All PDCs were thawed and cultured in Matrigel-coated flasks prepared with a working solution of 1X Ham's F-12 nutrient mix, without supplementation (Invitrogen, Waltham, MA, cat. 11765054), 100 U/mL penicillin-streptomycin (Invitrogen, cat. 15140122), and 2.5% Matrigel (Corning Inc., Corning, NY, cat. 354248) for the first three passages. The 362531-283-R-J2-PDC and 782815-120-R-J1-PDC lines were cultured in 6C/Colon 1B media, which includes advanced DMEM/F-12 (Thermo Fisher Scientific, cat. 12634028), 10 mM HEPES (Thermo Fisher Scientific, cat. 15630080), 1X GlutaMAX supplement (Thermo Fisher Scientific, cat. 35050061), 0.1 mg/mL primocin (InvivoGen, San Diego, CA, cat. ant-pm-2), 10% defined fetal bovine serum, heat inactivated (HyClone Laboratories Inc., Logan, UT, cat. SH30070.03HI), 50% L-WRN conditioned media (ATCC, cat. CRL-3276), 1.25 mM N-Acetyl-L-cysteine (Sigma-Aldrich, cat. A9165), 10 mM nicotinamide (Sigma-Aldrich, cat. N0636), 1X B-27 supplement (Thermo Fisher Scientific, cat. 17504044), 1X N-2 supplement (Thermo Fisher Scientific, cat. 17502048), 50 ng/mL human EGF (Thermo Fisher Scientific, cat. PHG0311), and 10 microM Y-27632 dihydrochloride (Tocris Bioscience, cat. 1254). The K12877-001-R-J1-PDC line was cultured in 6I media, which includes all 6C/Colon 1B media plus 10 ng/mL human FGF-10 (PeproTech, cat. 100-26), 1 ng/mL human FGF-2 (PeproTech, cat. 100-18B), 1 µM prostaglandin E2 (Tocris Bioscience, cat. 2296), […] hydrocortisone (Sigma-Aldrich, cat. H4001), and […] bovine insulin (Sigma-Aldrich, cat. I6634). The K86415-001-R-J1-PDC line was cultured in 6D media, which includes all 6C/Colon 1B media components minus the L-WRN conditioned media. The 485176-168-R4-J1-PDC was cultured in PANC media, which includes all 6C/Colon 1B media plus 100 ng/mL human FGF-10 (PeproTech, cat. 100-26), 500 nM SB-431542 (Selleckchem, cat. S1067), and 10 nM gastrin (Tocris Bioscience, cat. 3006). […]
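Note: spheroids exposed to agents for one week before readout.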

In the case of C#Cc1c(F)ccc2cc(O)cc(-c3ncc4c(N5CC6CCC(C5)N6)nc(OCC56CCCN5CC(F)C6)nc4c3F)c12 (stereo not drawn), the viability, T/C (compound 0.0316 µM) is reported as 105% [middle of 8 runs], the viability, T/C (compound 0.1 µM) is reported as 107% [middle of 8 runs] and the viability, T/C (compound 0.316 µM) is reported as 110% [middle of 8 runs]. For the same compound, the viability, T/C (compound 1 µM) was 110% [middle of 8 runs], the viability, T/C (compound 3.16 µM) was 101% [middle of 8 runs] and the viability, T/C (compound 10 µM) was 96.5% [middle of 8 runs]. For the same compound, the IC50 (compound alone, run of 09/09/2024) was over 10 µM.
With CC(=O)OC12COC1CC(O)C1(C)C(=O)C(O)C3=C(C)C(OC(=O)C(O)C(NC(=O)OC(C)(C)C)c4ccccc4)CC(O)(C(OC(=O)c4ccccc4)C21)C3(C)C (stereo not drawn) the viability, T/C (compound 0.0316 µM) was 8.58% [middle of 4 runs], the viability, T/C (compound 0.1 µM) was 6.5% [middle of 4 runs] and the viability, T/C (compound 0.316 µM) was 5.06% [middle of 4 runs]. For the same compound, the viability, T/C (compound 1 µM) was 4.96% [middle of 4 runs], the viability, T/C (compound 3.16 µM) was 6.68% [middle of 4 runs] and the viability, T/C (compound 10 µM) was 15% [middle of 4 runs]. It also gave an IC50 (curve of compound) of under 0.0316 µM.
With CC(C)NCC(C(=O)N1CCN(c2ncnc3c2C(C)CC3O)CC1)c1ccc(Cl)cc1 (stereo not drawn) the viability, T/C (compound 0.0316 µM) was 107% and 110% (2×) and 97.4% and the viability, T/C (compound 0.1 µM) was 102% [middle of 4 runs].
In the case of CC(Nc1ccc2c(c1)OCCn1cc(N3C(=O)OCC3C(F)F)nc1-2)C(N)=O (stereo not drawn), the viability, T/C (compound 0.0316 µM) is reported as 91.3% [middle of 4 runs] and the viability, T/C (compound 1 µM) is reported as 69.9% [middle of 4 runs].
In the case of CC1(O)CCCC1n1c(=O)c(C(F)F)cc2cnc(NC3CCN(S(C)(=O)=O)CC3)nc21 (stereo not drawn), the viability, T/C (compound 0.0316 µM) is reported as 99.7% [middle of 4 runs] and the viability, T/C (compound 10 µM) is reported as 3.53% [middle of 4 runs].
CCC(CC)c1cc(NC2CCC(N)C2)n2nccc2n1 (stereo not drawn) was tested, and the viability, T/C (compound 0.0316 µM) was 104% [middle of 4 runs], the viability, T/C (compound 0.1 µM) was 87.1% [middle of 4 runs] and the viability, T/C (compound 0.316 µM) was 103% [middle of 4 runs]. For the same compound, the viability, T/C (compound 1 µM) was 86.7% [middle of 4 runs], the viability, T/C (compound 3.16 µM) was 2.99% [middle of 4 runs] and the viability, T/C (compound 10 µM) was 1.41% [middle of 4 runs]. The IC50 (curve of compound) was 1.65 µM [middle of 4 runs].
In the case of C[C@@H](NC(=O)c1ncnc(N)c1Cl)c1ncc(C(=O)Nc2cc(C(F)(F)F)c(Cl)cn2)s1, the viability, T/C (compound 0.0316 µM) is reported as 110% [middle of 4 runs], the viability, T/C (compound 0.1 µM) is reported as 99.7% [middle of 4 runs] and the viability, T/C (compound 0.316 µM) is reported as 95% [middle of 4 runs]. The viability, T/C (compound 1 µM) was 103% [middle of 4 runs], the viability, T/C (compound 3.16 µM) was 100% [middle of 4 runs] and the viability, T/C (compound 10 µM) was 95.4% [middle of 4 runs]. The IC50 (curve of compound) was over 10 µM.
Cc1nc(N2CCC3(CC2)COC(C)C3N)c(CO)nc1Sc1ccnc(N)c1Cl (stereo not drawn) was tested, and the viability, T/C (compound 0.1 µM) was 92.8% [middle of 4 runs], the viability, T/C (compound 0.316 µM) was 92.2% [middle of 4 runs] and the viability, T/C (compound 1 µM) was 93.8% [middle of 4 runs]. The viability, T/C (compound 10 µM) was 79.5% [middle of 4 runs] and the IC50 (curve of compound) was over 10 µM.
NC1c2ccccc2OC12CCN(c1cnc3c(N4CCCc5ncccc54)n[nH]c3n1)CC2 (stereo not drawn) was tested, and the viability, T/C (compound 0.0316 µM) was 100% [middle of 4 runs], the viability, T/C (compound 0.1 µM) was 97.9% [middle of 4 runs] and the viability, T/C (compound 10 µM) was 51.5% [middle of 4 runs]. The IC50 (curve of compound) was > 10 µM and 3.82 µM.

Reference: PubChem BioAssay AID2060894 (Molecular Pharmacology Branch, DTP, NCI, 2025)
